Structure (SMILES) | melting point [°C]
CC(C)(C)c1cc2c(c(-c3nc4ccc(S(=O)(=O)C(F)(F)F)cc4c(=O)[nH]3)c1O)CCO2 [Example 7, 2-(6-tert-Butyl-5-hydroxy-2,3-dihydro-benzofuran-4-yl)-6-trifluoromethanesulfonyl-3H-quinazolin-4-one] | 235 to 237
Cc1c(F)cc(C(C)(C)C)c(O)c1-c1nc2ccc(S(=O)(=O)C(F)(F)F)cc2c(=O)[nH]1 [Example 6, 2-(3-tert-Butyl-5-fluoro-2-hydroxy-6-methyl-phenyl)-6-trifluoromethanesulfonyl-3H-quinazolin-4-one] | 257 to 258
Cc1c(F)cc(C(C)(C)C)c(O)c1-c1nc2ccc(F)cc2c(=O)[nH]1 [Example 3, 2-(-3-tert-Butyl-5-fluoro-2-hydroxy-6-methyl-phenyl)-6-fluoro-3H-quinazolin-4-one] | 247 to 248
CCc1c(Cl)cc(C(C)(C)C)c(O)c1-c1nc2ccc(S(=O)(=O)C(F)(F)F)cc2c(=O)[nH]1 [Example 8, 2-(-3-tert-Butyl-5-chloro-2-hydroxy-6-ethyl-phenyl)-6-trifluoromethanesulfonyl-3H-quinazolin-4-one] | 285 to 286
Cc1c(Cl)cc(C(C)(C)C)c(O)c1-c1nc2ccc(F)cc2c(=O)[nH]1 [Example 2, 2-(3-tert-Butyl-5-chloro-2-hydroxy-6-methyl-phenyl)-6-fluoro-3H-quinazolin-4-one] | 224 to 225
Cc1c(Cl)cc(C(C)(C)C)c(O)c1-c1nc2ccc(S(=O)(=O)C(F)(F)F)cc2c(=O)[nH]1 [Example 4, 2-(3-tert-Butyl-5-chloro-2-hydroxy-6-methyl-phenyl)-6-trifluoromethanesulfonyl-3H-quinazolin-4-one] | 297 to 298

Source: patent publication US20100249161A1, “2- ( 2 -HYDROXYPHENYL) -QUINAZOLIN-4-ONES USEFUL FOR TREATING OBESITY AND DIABETES” (priority 2006, published 2010)
